Experiment [1] deals with C3H10T1/2 cells. Kind of experiment: C3H assay: differentiation of C3H10T1/2 cells by mSHH, measurement of alkaline phosphatase. In kind it is cell-based, mouse. To be noted: Mus musculus, C3H 10T1/2.
For experiment [2], the system named is SMO L416F mutant cell line. Kind of experiment: C3H10T1/2 cell differentiation assay in SMO L416F mutant cell line versus wild type. In kind it is cell-based, mouse. To be noted: SMO L416F mutant cell line compared to the wild type, C3H10T1/2 cell differentiation assay. An excerpt:
FIG. 1 is a graph of the percent inhibition of C3H10T1/2 cell differentiation of vismodegib compared to compound of the invention (compound number 174), in wild type versus SMO L416F mutant cell line.
Loss of Potency in C3H10T1/2 Cell Differentiation Assay Associated with Presence of SMO L416F Mutation.
Table 3 below details the number of fold reduction in potency of a range of compounds of the invention when applied to the SMO L416F mutant cell line compared to the wild type. SMO mutation has been described in the literature (Pricl, Sabrina, et al.) as a key mutation causative of vismodegib resistance in the clinic by interfering with drug binding.

Experiment [3] has as its target T1, SMO (Homo sapiens, UniProt Q99835).
T1 construct: expressed in transfected cells; host or cells: HEK293
Kind of experiment: Smoothened (SMO) binding fluorescence polarisation assay (BODIPY-cyclopamine competition). Particulars: SMO binding FP assay versus C3H10T1/2 cellular assay. The method, boiled down: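 Competition fluorescence polarisation with 3 nM BODIPY-cyclopamine on membranes from SMO-overexpressing HEK293 cells, 25 mM HEPES pH7.4 buffer, 0.3% DMSO. Seven-point compound dilutions; read after 24 hours at room temperature in the dark.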

Setting [4] is: C3H10T1/2 cells stimulated with mSHH for 72 hours, alkaline phosphatase activity, read-out: IC50 Ranges.

Read-outs that look alike come from different tables or passages of the source.

T1 sequence (Q99835 28-787): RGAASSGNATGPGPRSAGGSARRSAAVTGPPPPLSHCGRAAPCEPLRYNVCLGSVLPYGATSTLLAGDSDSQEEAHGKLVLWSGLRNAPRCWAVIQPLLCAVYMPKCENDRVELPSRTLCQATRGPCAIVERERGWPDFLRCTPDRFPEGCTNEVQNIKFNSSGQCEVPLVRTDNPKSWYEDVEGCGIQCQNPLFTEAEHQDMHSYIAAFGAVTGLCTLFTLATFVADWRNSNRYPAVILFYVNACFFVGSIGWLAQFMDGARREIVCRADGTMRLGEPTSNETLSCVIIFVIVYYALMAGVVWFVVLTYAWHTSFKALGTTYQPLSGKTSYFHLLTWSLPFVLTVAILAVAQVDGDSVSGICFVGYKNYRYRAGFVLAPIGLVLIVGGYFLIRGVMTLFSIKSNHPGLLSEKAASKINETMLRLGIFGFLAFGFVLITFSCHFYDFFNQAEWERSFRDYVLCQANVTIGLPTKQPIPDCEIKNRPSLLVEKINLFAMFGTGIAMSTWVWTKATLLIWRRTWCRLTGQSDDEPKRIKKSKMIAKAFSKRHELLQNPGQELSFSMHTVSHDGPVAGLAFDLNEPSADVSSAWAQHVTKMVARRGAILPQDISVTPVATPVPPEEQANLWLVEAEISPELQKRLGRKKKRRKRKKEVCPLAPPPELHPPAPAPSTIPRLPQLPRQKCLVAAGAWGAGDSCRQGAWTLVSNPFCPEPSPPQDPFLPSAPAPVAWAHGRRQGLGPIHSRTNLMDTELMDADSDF

As for `CC(C)(C)NC(=O)N1CCC(S(=O)(=O)N2CCC(c3c[nH]c4ncccc34)CC2)CC1` [Compound 107, N-tert-butyl-4-[4-(1H-pyrrolo[2,3-b]pyridin-3-yl)piperidin-1-yl]sulfonylpiper-idine-1-carboxamide], in experiment [1] (setting [4]), the half-maximal inhibitory concentration (IC50) lay in the range of 0.01 to 0.1 µM. For the same molecule, in experiment [2], the “Fold reduction in potency in SMO L416F mutant cell line” value (from here on “Fold reduction in potency”) is 56. Further, the “Ratio of potency in SMO binding assay to potency in C3H10T1/2 cellular assay” value (“Ratio of potency in SMO binding assay” below) in experiment [3] came out at 20.
On to `CC(C)(C)OC(=O)N1CC(S(=O)(=O)N2CCC(c3cnc4occc4c3)CC2)C1` [Compound 124, tert-butyl 3-(4-furo[2,3-b]pyridin-5-ylpiperidin-1-yl)sulfonylaze-tidine-1-carboxylate], for which, in experiment [1] (setting [4]), the IC50 fell in the range of 0.01 to 0.1 µM. In addition, in experiment [2], the “Fold reduction in potency” value stood at 64. Besides, in experiment [3], the “Ratio of potency in SMO binding assay” value was determined as 82.
As for `CC(C)(C)CN1CC(S(=O)(=O)N2CCC(c3c[nH]c4ncccc34)CC2)C1` [Compound 143, 3-[1-[1-(2,2-Dimethylpropyl)azetidin-3-yl]sulfonyl-4-piperidyl]-1H-pyrrolo[2,3-b]pyridine], the IC50 in experiment [1] (setting [4]) is 0.1 to 1 µM. In addition, in experiment [2], the “Fold reduction in potency” value was determined as 21. The “Ratio of potency in SMO binding assay” value in experiment [3] is on record as more than 17.
In the case of `O=C(OCC1CCC1)N1CC(S(=O)(=O)N2CCC(c3cn(C(=O)OCC4CCC4)c4ncccc34)CC2)C1` [Compound 154, cyclobutylmethyl 3-[1-[1-(cyclobutylmethoxycarbonyl)azetidin-3-yl]sulfonylpiper-idin-4-yl]pyrrolo[2,3-b] pyridine-1-carboxylate], the concentration for half-maximal inhibition (IC50) in experiment [1] (setting [4]) lay within 0.01 to 0.1 µM. In addition, the “Fold reduction in potency” value in experiment [2] is 28. The “Ratio of potency in SMO binding assay” value in experiment [3] stood at 66.
In the case of `O=C(OCc1ccccc1C(F)(F)F)N1CC(S(=O)(=O)N2CCC(c3c[nH]c4ncccc34)CC2)C1` [Compound 216, [2-(trifluoromethyl)phenyl]methyl 3-[4-(1H-pyrrolo[2,3-b]pyridin-3-yl)piperidin-1-yl]sulfonylaze-tidine-1-carboxylate], the IC50 in experiment [1] (setting [4]) is less than 0.01 µM. Further, in experiment [2], the “Fold reduction in potency” value turned out to be 47.
In the case of `COc1ccccc1OC(=O)N1CC(S(=O)(=O)N2CCC(c3c[nH]c4ncccc34)CC2)C1` [Compound 217, (2-methoxyphenyl) 3-[4-(1H-pyrrolo[2,3-b]pyridin-3-yl)piperidin-1-yl]sulfonylaze-tidine-1-carboxylate], the IC50 in experiment [1] (setting [4]) was less than 0.01 µM. Further, the “Fold reduction in potency” value in experiment [2] was 34.
As for `Cc1ccnc2[nH]cc(C3CCN(S(=O)(=O)C4CN(C(=O)OC(C)(C)C)C4)CC3)c12` [Compound 223, tert-butyl 3-[4-(4-methyl-1H-pyrrolo[2,3-b]pyridin-3-yl)piperidin-1-yl]sulfonylaze-tidine-1-carboxylate], in experiment [1] (setting [4]), the IC50 lay within 0.01 to 0.1 µM. The “Fold reduction in potency” value in experiment [2] is 26. Also, in experiment [3], the “Ratio of potency in SMO binding assay” value came out at 21.
For `CC(C)(C)OC(=O)N1CCCC(S(=O)(=O)N2CCC(c3c[nH]c4ncccc34)CC2)C1` (centres unmarked) [Compound 248, tert-butyl 3-[4-(1H-pyrrolo[2,3-b]pyridin-3-yl)piperidin-1-yl]sulfonylpiper-idine-1-carboxylate], the IC50 in experiment [1] (setting [4]) lay within 0.1 to 1 µM. The “Fold reduction in potency” value in experiment [2] worked out at 10.
Taken in the same sequence, the figures for `CC(C)[C@@H](CO)NC(=O)N1CC(S(=O)(=O)N2CCC(c3c[nH]c4ncccc34)CC2)C1` [Compound 250, N-[(2S)-1-hydroxy-3-methylbutan-2-yl]-3-[4-(1H-pyrrolo[2,3-b]pyridin-3-yl)piperidin-1-yl]sulfonylaze-tidine-1-carboxamide] were 0.01 to 0.1 µM and 29.
Regarding `CS(=O)(=O)c1ccc(C(=O)Nc2ccc(Cl)c(-c3ccccn3)c2)c(Cl)c1` [Vismodegib, reference compound], the IC50 in experiment [1] (reference compounds run in the C3H assay, read-out: mean IC50) turned out to be 0.0063 µM. The “Fold reduction in potency” value in experiment [2] was found to be 202. The “Ratio of potency in SMO binding assay” value in experiment [3] came out at 2.2.

The values above are taken from patent US10961238B2, “Modulators of hedgehog (Hh) signaling pathway” (E-THERAPEUTICS PLC, priority 2016, dated 2021).
